Assay results taken from PubChem BioAssay (NCI).
“And” between values parts separate entries of the source, which are not always exact repeats. Equal entries are not always repeated.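 Grown in 96-well plates, cells were treated for 48 hours with each compound at five concentrations. Insufficient inhibition: endpoint recorded as highest concentration tested. GI50 = concentration required for 50% inhibition of growth. TGI denotes the concentration required for complete inhibition of growth.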

Experiments:
Assay in all cases: NCI tumour cell line growth inhibition, 48 h
[1] = tested on: K-562 leukemia
[2] = tested on: LOX IMVI melanoma
[3] = tested on: OVCAR-5 ovarian
[4] = tested on: PC-3 prostate
[5] = tested on: SF-268 CNS
[6] = tested on: SK-MEL-2 melanoma
[7] = tested on: T-47D breast
[8] = tested on: U251 CNS
[9] = tested on: EKVX NSCLC
[10] = tested on: HOP-92 NSCLC

Compound | TGI [1] | TGI [2] | TGI [3] | TGI [4] | TGI [5] | TGI [6] | TGI [7] | TGI [8] | GI50 [9] | TGI [9] | TGI [10] | GI50 [1] | GI50 [3] | GI50 [6] | GI50 [8] | GI50 [10] | GI50 [2] | GI50 [4] | GI50 [5] | GI50 [7]
O=C1CCCCCCCCCCC1CN1CCCC1 (centres undefined) | > 100 µM | 70.7 µM | > 100 µM | > 100 µM | > 100 µM | 99.7 µM | > 100 µM | > 100 µM | – | – | – | – | – | – | – | – | – | – | – | –
C=Cc1cncc(C#N)c1CCc1c(C#N)cncc1C=C | > 100 µM | > 100 µM | > 100 µM | – | > 10 µM | > 100 µM | – | > 100 µM | > 10 µM | > 100 µM | > 10 µM | > 100 µM | > 100 µM | > 100 µM | > 100 µM | – | – | – | – | –
COc1ccc2c(CN3CCCC[C@H]3C(=O)O)cc3cc4c(cc3c2c1)OCO4 | 11.1 µM | 3.15 µM | 44.5 µM | 7.14 µM | 1.39 µM | – | 8.04 µM | 5.4 µM | 3 µM | 6.77 µM | 5.19 µM | 1.5 µM | 6.17 µM | – | 1.96 µM | 1.86 µM | 1.37 µM | 2.53 µM | 0.175 µM | 2.05 µM
C[C@H](OCc1ccccc1)C(=O)N1CCS(=O)(=O)N2CCC[C@@H]2C1=O | > 100 µM | > 100 µM | > 100 µM | – | > 100 µM | – | – | > 100 µM | – | > 100 µM | > 100 µM | – | – | – | – | – | – | – | – | –
CCCCOC(=O)N1CCN(/[N+]([O-])=N/Oc2ccc([N+](=O)[O-])cc2[N+](=O)[O-])CC1 | > 100 µM | 5.06 µM | 11.8 µM | 30.8 µM | 25.4 µM | 21.8 µM | – | 21.8 µM | 8.01 µM | 23.5 µM | – | 5.97 µM | 3.53 µM | 4.55 µM | 5.85 µM | – | 2.27 µM | 14 µM | 6.42 µM | –
COc1ccc(/C=C/c2cc(OC)c(OC)c(OC)c2)cc1 | > 100 µM | > 100 µM | > 100 µM | – | > 85.3 µM | 52.8 µM | – | 11.7 µM | – | > 100 µM | > 100 µM | 34 µM | – | – | – | – | – | – | – | –
CCOC(=O)/C(C1=NCCN1)=C(\O)c1ccccc1 | > 100 µM | > 100 µM | > 100 µM | – | > 100 µM | > 100 µM | – | > 100 µM | – | > 100 µM | – | – | – | – | – | – | – | – | – | –
Nc1ncnc2c1N=C(c1ccc3c(c1)OCO3)CC(c1ccc([N+](=O)[O-])cc1)N2 (centres undefined) | > 100 µM | > 100 µM | > 100 µM | > 100 µM | > 100 µM | – | > 100 µM | > 100 µM | 92.6 µM | > 100 µM | – | 22.5 µM | > 100 µM | – | 49.3 µM | – | 22.9 µM | 31.1 µM | 42 µM | 80.7 µM
OC1(C23CC4CC(CC(C4)C2)C3)CSCC1(O)C12CC3CC(CC(C3)C1)C2 (centres undefined) | > 100 µM | – | – | – | > 100 µM | > 100 µM | – | – | – | > 100 µM | > 100 µM | – | – | – | – | – | – | – | – | –
CCCCCCCCCCCCCCCC(=O)OCC1OC(n2cc(F)c(=O)[nH]c2=O)C(N)C(O)C1O (centres undefined) | 32.8 µM | 33.1 µM | 58.8 µM | – | 35.2 µM | – | – | 32.4 µM | – | 35.6 µM | 38.9 µM | – | – | – | – | – | – | – | – | –
Cc1cccc(/C=N/NC(=S)N2CCCC2)n1 | > 100 µM | > 41.4 µM | – | – | – | – | 7.68 µM | > 100 µM | 3.18 µM | – | – | 0.17 µM | 2.41 µM | – | 0.821 µM | 0.536 µM | – | 0.581 µM | 2.29 µM | 0.267 µM
CCOC(=O)CCC(NC(=O)OCc1ccccc1)C(=O)NC(CCC(=O)OCC)C(=O)NC(CCC(=O)OCC)C(=O)NC(CCC(=O)OCC)C(=O)NC(CCC(=O)OCC)C(=O)NC(CCC(=O)OCC)C(=O)NC(CCC(=O)OCC)C(=O)OCC (centres undefined) | > 100 µM | > 100 µM | > 100 µM | > 100 µM | > 100 µM | > 100 µM | > 100 µM | > 100 µM | – | – | – | – | – | – | – | – | – | – | – | –
Cc1ccccc1C1OC(=O)c2ccc3ccccc3c21 (centres undefined) | 19.5 µM | 7.45 µM | > 31.6 µM | – | 14.8 µM | 5.98 µM | – | 13.3 µM | – | 17.5 µM | 49.9 µM | – | – | – | – | – | – | – | – | –
CCCCCCC[CH2][Sn]([CH2]CCCCCCC)([O]c1cccc2cccnc12)[O]c1cccc2cccnc12 | 3.86 µM | 3.64 µM | 8.21 µM | – | 10.7 µM | 3.14 µM | – | 3.25 µM | 2.06 µM | 7.18 µM | – | 0.586 µM | 3.02 µM | 1.61 µM | 1.72 µM | – | 1.77 µM | – | 2.68 µM | –
Cc1cn(C2CC3C(COCN3O)O2)c(=O)[nH]c1=O (centres undefined) | > 100 µM | > 100 µM | > 100 µM | – | > 100 µM | – | – | > 100 µM | – | > 100 µM | – | – | – | – | – | – | – | – | – | –
COc1ccc2c(c1)C(=O)c1ccc(OC)cc1C2=S | > 100 µM | > 100 µM | > 100 µM | – | > 100 µM | > 100 µM | – | 61.7 µM | – | > 100 µM | > 100 µM | – | – | – | – | – | – | – | – | –
CC(=O)N1CC(C)(C)c2c(C)c(O)c(C)c(C)c21 | > 100 µM | > 100 µM | > 100 µM | > 100 µM | > 100 µM | – | > 100 µM | > 100 µM | – | > 100 µM | > 100 µM | – | – | – | – | – | – | – | – | –
C[C@@]12CCC(=O)c3coc(c31)C(=O)c1cc3c(cc12)C(=O)C=CC3=O | > 56.9 µM | > 1 µM and 20.9 µM | > 1 µM and 36 µM | – | > 1 µM and 38 µM | > 1 µM and 45.1 µM | – | > 1 µM and 52.9 µM | > 1 µM | > 1 µM and 48.6 µM | > 1 µM and 19.6 µM | > 1 µM | > 1 µM | > 1 µM | > 1 µM | > 1 µM | > 1 µM | – | > 1 µM | –
COc1cc2ccnc3c2c(c1OC)-c1coc(SC)c1-3 | > 100 µM | > 100 µM | > 100 µM | – | > 100 µM | > 100 µM | – | > 100 µM | – | – | > 100 µM | – | – | – | – | – | – | – | – | –
